{"source": "patent US6596878B2", "about": "“Methods and compositions for inhibiting cell proliferative disorders” (Yissum Research & Development Company of the Hebrew …, priority 1994, dated 2003)", "key": {"[1]": {"test_system": "NIH3T3 cells overexpressing the HER2 kinase (3T3-HER2)", "assay": "3T3 growth assay, HER2C7 cells (3T3-HER2)", "format": "cell-based", "conditions": "Mus musculus, NIH3T3, 96 h, Table VI, 2% FBS, 4 days", "from_the_text": "(§1) This example illustrates the ability of the exemplary compounds to inhibit receptor tyrosine kinases, such as HER2 and/or EGFR. The following target cells were used for cellular kinaseassays: NIH3T3 clone C7 (Honegger et al., supra) engineered to over-express human EGF receptor; NIH3T3 cells engineered to over-express a chimeric receptor containing the EGFR extracellular domain and the HER2 intracellular kinase domain; the human mammary carcinoma line BT474 (ATCC HTB2) expressing HER2; and the human glioblastoma line U1242 that expresses PDGFR-β. Growth assays were carried out using human mammary epithelial SKBR3 (ATCC HTB30) cells, SKOV3 (ATCC HTB77) human ovarian cancer cell line, A431 cells, MCF7 human breast carcinoma cells, MCF7 cells overexpress the HER2 kinase (MCF7-HER2), NIH3T3 cells, and NIH3T3 cells overexpressing the HER2 kinase (3T3-HER2).\nThe 3T3 growth assay was carried out as follows:\n(1) Dulbecco's Modified Eagle Medium (D-MEM), Gibco 11965-050;\n(4) Fetal Bovine Serum Certified, Gibco 16000-028;\n(5) Dulbecco's Phosphate-Buffered Saline (D-PBS), Gibco 14190-029;\n(6) Sulforhodamine B (SRB), Sigma S-9012. 0.4% SRB in 1% acetic acid;\n(7) 10 mM Tris-base, Fisher BP152-5;\n(8) 10% TCA, Trichloroacetic acid, Fisher A322-500;\n(9) 96-well flat bottom plate (sterile), Corning 08-757-155;\n(10) 100 ml reagent reservoir 9 (sterile), Matrix Technologies Corporation, 8086;\n(11) Sterile pipet tips, Fisher 21-197-8E;\nNIH3T3C7 cells in 10% CS+2 mM GLN DMEM HER2C7 cells in 2% FBS+2 mM GLN DMEM\n(1) HER2C7 (engineered to express HER2) and NIH3T3C7 (as the control) cells are used for this assay. NIH3T3C7 cells are seeded at 2500 cells/well, […] in 10% CS+2 mM GLN DMEM, in a 96 well plate; HER2C7 cells are seeded at 6000 cells/well, 100 μl/well in 2% FBS+2 mM GLN DMEM, in a 96 well plate. Cells are incubated at 37° C., 5% CO2 overnight to allow for cell attachment to the plate;\n(2) The test compound is added to the cells at day 2. The compounds are prepared in the appropriate growth medium (10% CS+2 mM) GLN DMEM for NIH3T3C7 cells; 2% FBS+2 mM GLN DMEM for HER2C7 cells) in a 96 well plate, and serially diluted. A total of 100 μl/well medium of the diluted compounds is added into the cells. The total volume of each well is 200 μl. Quadruplicates (wells) and 11 concentration points are applied to each compound tested.\n(3) After the cells are treated with the compound for 4 days, the cells are washed with PBS and fixed with 200 μl/well ice-cold 10% TCA for one hour at 0-5° C. condition.\n(4) Remove TCA and rinse wells 5 times with deionized water. Dry plates upside down with paper towels. Stain cells with 0.4% SRB at 100 μl/well for 10 minutes.\n(5) Pour off SRB and rinse plate 5 times with 1% acetic acid. Dry plate completely.\n(6) Solubilize the dye with 10 mM Tris-base at 100 μl/well for 10 minutes on a shaker.\n(7) Read the plate at dual wavelengths at 570 nm and 630 nm on Dynatech Elisa plate reader."}, "[2]": {"molecular_target": "T1, chimeric receptor containing the EGFR extracellular domain and the HER2 intracellular kinase domain (Homo sapiens, UniProt P04626)", "T1 construct": "P00533 (Epidermal growth factor receptor)", "assay": "EGFR-HER2 chimeric receptor whole cell kinase assay (E/HER2-3T3)", "format": "cell-based", "conditions": "Table VI, cellular kinase assay", "from_the_text": "as §1\n2. EGFR-HER2 Chimeric Receptor\nHER2 kinase activity (EGFR-3T3) in whole cells was measured as described below:\nThe following protocol was used:\nA. Coat ELISA plates (Corning, 96 well, Cat. #25805-96) with 05-101 antibody at 0.5 μg per well in PBS, 100 μl final volume/well, and store overnight at 4° C. Coated plates are good for up to 10 days when stored at 4° C.\nB. On day of use, remove coating buffer and replace with 100 μl blocking buffer (5% Carnation Instant Non-Fat Dry Milk in PBS). Incubate the plate, shaking, at room temperature (about 23° C. to 25° C.) for 30 minutes. Just prior to use, remove blocking buffer and wash plate 4 times with TBST buffer.\nA. An NIH3T3 cell line overexpressing a chimeric receptor containing the EGFR extracellular domain and extracellular HER2 kinase domain can be used for this assay.\nA. Choose dishes having 80-90% confluence for the experiment. Trypsinize cells and stop reaction by adding 10% fetal bovine serum. Suspend cells in DMEM medium (10% CS DMEM medium) and centrifuge once at 1500 rpm, at room temperature for 5 minutes.\nB. Resuspend cells in seeding medium (DMEM, 0.5% bovine serum), and count the cells using trypan blue. Viability above 90% is acceptable. Seed cells in DMEM medium (0.5% bovine serum) at a density of 10,000 cells per well, 100 μl per well, in a 96 well microtiter plate. Incubate seeded cells in 5% CO2 at 37° C. for about 40 hours.\nA. Check seeded cells for contamination using an inverted microscope. Dilute drug stock (10 mg/ml in DMSO) 1:10 in DMEM medium, then transfer 5 μl to a test well for a final drug dilution of 1:200 and a final DMSO concentration of 1%. Control wells receive DMSO alone. Incubate in 5% CO2 at 37° C. for two hours.\nA. Prepare EGF ligand: dilute stock EGF in DMEM so that upon transfer of 10 μl dilute EGF (1:12 dilution), 100 nM final concentration is attained.\nB. Prepare fresh HNTG* sufficient for 100 μl per well; and place on ice.\nC. After 120 minutes incubation with drug, add prepared EGF ligand to cells, 10 μl per well, to a final concentration of 100 nM. Control wells receive DMEM alone. Incubate, shaking, at room temperature, for 5 minutes.\nD. Remove drug, EGF, and DMEM. Wash cells twice with PBS. Transfer HNTG* to cells, 100 μl per well. Place on ice for 5 minutes. Meanwhile, remove blocking buffer from other ELISA plate and wash with TBST as described above.\nE. With a pipette tip securely fitted to a micropipettor, scrape cells from plate and homogenize cell material by repeatedly aspirating and dispensing the HNTG* lysis buffer. Transfer lysate to a coated, blocked, and washed ELISA plate. Incubate shaking at room temperature for one hour.\nF. Remove lysate and wash 4 times with TBST. Transfer freshly diluted anti-Ptyr antibody to ELISA plate at 100 μl per well. Incubate shaking at room temperature for 30 minutes in the presence of the anti-Ptyr antiserum (1:3000 dilution in TBST).\nG. Remove the anti-Ptyr antibody and wash 4 times with TBST. Transfer the freshly diluted TAGO anti-rabbit IgG antibody to the ELISA plate at 100 μl per well. […]"}}, "data": [{"molecule": "CC(C)(C)c1cc(/C=C(\\C#N)C(N)=S)cc(C(C)(C)C)c1O", "note": "[Compound M11]", "values": [{"measurement": "IC50", "setting": "[1]", "result": 30, "unit": "µM"}, {"measurement": "IC50", "setting": "[2]", "result": "> 100", "unit": "µM"}]}, {"molecule": "N#C/C(=C\\c1ccc(O)c(O)c1)C(=S)NCc1ccccc1", "note": "[Compound M13]", "values": [{"measurement": "IC50", "setting": "[2]", "result": "> 100", "unit": "µM"}]}, {"molecule": "N#C/C(=C\\c1ccc(O)c(O)c1)C(=O)Nc1cccc(C(F)(F)F)c1", "note": "[Compound M15]", "values": [{"measurement": "IC50", "setting": "[2]", "result": "> 100", "unit": "µM"}]}, {"molecule": "CC(C)(C)c1cc(/C=C(\\C#N)C(=O)NCCCc2ccccc2)cc(C(C)(C)C)c1O", "note": "[Compound M20, (E)-3-(3,5-di-t-Butyl-4-hydroxyphenyl)-2-[(3-phenyl-n-propyl)aminocarbonyl]acrylonitrile]", "values": [{"measurement": "IC50", "setting": "[1]", "result": 4, "unit": "µM"}]}, {"molecule": "CC(C)c1cc(/C=C(\\C#N)C(=O)NCCCc2ccccc2)cc(C(C)C)c1O", "note": "[Compound M21, (E)-3-(3,5-Diisopropyl-4-hydroxyphenyl)-2-[(3-phenyl-n-propyl)aminocarbonyl]acrylonitrile]", "values": [{"measurement": "IC50", "setting": "[1]", "result": 70, "unit": "µM"}, {"measurement": "IC50", "setting": "[2]", "result": "> 100", "unit": "µM"}]}, {"molecule": "CC(C)c1cc(C=C(C#N)C(N)=C(C#N)C#N)cc(C(C)C)c1O", "note": "[Compound M22, (E)-2-(1-Amino-2,2-dicyanoethenyl-3-(3,5-diisopropyl-4-hydroxyphenyl)acrylonitrile)]", "values": [{"measurement": "IC50", "setting": "[2]", "result": "> 100", "unit": "µM"}]}, {"molecule": "CC(C)c1cc(/C=C(\\C#N)C(=S)NCCCc2ccccc2)cc(C(C)C)c1O", "note": "[Compound M24, (E)-3-(3,5-Diisopropyl-4-hyrdroxyphenyl)-2-[(3-phenyl-n-propyl)aminothiocarbonyl]acrylonitrile]", "values": [{"measurement": "IC50", "setting": "[2]", "result": "> 100", "unit": "µM"}]}, {"molecule": "CC(C)c1cc(/C=C(\\C#N)S(=O)(=O)c2ccccn2)cc(C(C)C)c1O", "note": "[Compound M26]", "values": [{"measurement": "IC50", "setting": "[1]", "result": "> 100", "unit": "µM"}, {"measurement": "IC50", "setting": "[2]", "result": "> 100", "unit": "µM"}]}, {"molecule": "CC(C)c1cc(/C=C(\\C#N)S(=O)(=O)CC#N)cc(C(C)C)c1O", "note": "[Compound M27]", "values": [{"measurement": "IC50", "setting": "[1]", "result": 50, "unit": "µM"}, {"measurement": "IC50", "setting": "[2]", "result": "> 100", "unit": "µM"}]}, {"molecule": "CC(C)c1cc(/C=C(\\C#N)S(=O)(=O)/C(C#N)=C/c2cc(C(C)C)c(O)c(C(C)C)c2)cc(C(C)C)c1O", "note": "[Compound M29]", "values": [{"measurement": "IC50", "setting": "[1]", "result": 15, "unit": "µM"}, {"measurement": "IC50", "setting": "[2]", "result": "> 100", "unit": "µM"}]}, {"molecule": "CC(C)c1cc(/C=C(\\C#N)S(=O)(=O)c2ccccc2)cc(C(C)C)c1O", "note": "[Compound M30]", "values": [{"measurement": "IC50", "setting": "[1]", "result": 12, "unit": "µM"}, {"measurement": "IC50", "setting": "[2]", "result": 18.3, "unit": "µM"}]}, {"molecule": "Cc1cc(/C=C(\\C#N)S(=O)(=O)c2ccccc2)cc(C)c1O", "note": "[Compound M31]", "values": [{"measurement": "IC50", "setting": "[1]", "result": "> 100", "unit": "µM"}, {"measurement": "IC50", "setting": "[2]", "result": "> 100", "unit": "µM"}]}, {"molecule": "Cc1cc(/C=C(\\C#N)S(=O)(=O)c2ccccn2)cc(C)c1O", "note": "[Compound M32]", "values": [{"measurement": "IC50", "setting": "[1]", "result": 80, "unit": "µM"}, {"measurement": "IC50", "setting": "[2]", "result": "> 100", "unit": "µM"}]}, {"molecule": "CC(C)(C)c1cc(/C=C(\\C#N)S(=O)(=O)c2ccccc2)cc(C(C)(C)C)c1O", "note": "[Compound M33, (E)-3-(3,5-di-t-Butyl-4-hydroxyphenyl)-2-(phenylsulfonyl)acrylonitrile]", "values": [{"measurement": "IC50", "setting": "[1]", "result": 9, "unit": "µM"}, {"measurement": "IC50", "setting": "[2]", "result": "> 100", "unit": "µM"}]}, {"molecule": "CC(C)(C)c1cc(/C=C(\\C#N)S(=O)(=O)c2ccccn2)cc(C(C)(C)C)c1O", "note": "[Compound M34, (E)-3-(3,5-di-t-Butyl-4-hydroxyphenyl)-2-[(pyrid-2-yl)sulfonyl]acrylonitrile]", "values": [{"measurement": "IC50", "setting": "[1]", "result": 5.5, "unit": "µM"}, {"measurement": "IC50", "setting": "[2]", "result": "> 100", "unit": "µM"}]}, {"molecule": "CC(C)(C)c1cc(/C=C(\\C#N)C(=O)Nc2ccc(C(F)(F)F)cc2)cc(C(C)(C)C)c1O", "note": "[Compound M35, (E)-3-(3,5-di-t-Butyl-4-hydroxyphenyl)-2-[(4-trifluoromethyl)phenylaminocarbonyl]acrylonitrile]", "values": [{"measurement": "IC50", "setting": "[1]", "result": 0.25, "unit": "µM"}, {"measurement": "IC50", "setting": "[2]", "result": "> 100", "unit": "µM"}]}, {"molecule": "CC(C)(C)c1cc(/C=C(\\C#N)S(=O)(=O)CC#N)cc(C(C)(C)C)c1O", "note": "[Compound M36, (E)-3-(3,5-di-t-Butyl-4-hydroxyphenyl)-2-(cyanomethylsulfonyl)acrylonitrile]", "values": [{"measurement": "IC50", "setting": "[2]", "result": "> 100", "unit": "µM"}]}, {"molecule": "(E,E)-2-[[-Cyano-2-(3,5-diisopropyl-4-hydroxyphenyl)ethenyl]sulfonyl]-3-(3,5-di-t-butyl-4-hydroxyphenyl)acrylonitrile [Compound M37]", "values": [{"measurement": "IC50", "setting": "[2]", "result": "> 100", "unit": "µM"}]}]}
